{"source": "paper PMC7551771", "about": "“In-Depth In Silico Search for Cuttlefish (Sepia officinalis) Antimicrobial Peptides Following Bacterial Challenge of Haemocytes” (Marine Drugs, 2020)", "key": {"[1]": {"system": "V. splendidus (CIP 107715)", "experiment": "microbe, parasite or virus in culture", "assay_type": "cell-based, Vibrio splendidus", "experimental": "(§1) The minimal growth inhibitory concentrations (MICs) of synthetic peptides (Genecust) were evaluated on Vibrio alginolyticus (CIP 109819), V. splendidus (CIP 107715), V. aestuerianus (CIP 102971), V. anguillarum (CIP 64.14), V. parahaemolyticus (CIP 73.30), Halomonas aquamarina (CIP 105454T), Escherichia coli (CIP 54.8T), Aeromonas salmonicida (CIP 103209T), Enteroccocus faecalis (CIP 76.117) and Lactococcus garvieae (CIP 104369) obtained from the “Collection de l’Institut Pasteur”. Bacteria were cultured in adapted media: Homemade marine broth (HMB, sea salts 20 g/L, peptone 5 g/L, yeast extract 3 g/L) for Vibrio species and H. aquamarina; Luria-Bertani (peptone 10 g/L, yeast extract 5 g/L, NaCl 10 g/L) for E. faecalis and E. coli; Trypticasein Soy Broth (TSB, Conda, 40 g/L) for A. salmonicida, and Brain Heart Infusion (BHI) (Conda, 37 g/L) for L. garvieae. MICs were determined in triplicate by liquid growth inhibition assays adapted from Hetru and Bulet. Briefly, 10 µL of peptide solution were incubated in Bioscreen honeycomb-well plates with 90 µl of bacterial suspension at a starting OD600 of 0.001 in BHI for L. garvieae, poor broth (peptone 10 g/L, NaCl 5 g/L) for E. faecalis and E. coli, TSB for A. salmonicida, HMB for H. aquamarina and saline poor broth (peptone 10 g/L, NaCl 15 g/L) for Vibrio species. Bacterial growth was monitored for 16 h by measuring OD600 values every 5 min (Bioscreen C, Labsystem, Finland). The peptides were tested alone at concentrations of 5 µM, 10 µM, 20 µM and 50 µM. For synergy, peptides pairs were tested at concentrations of 5 µM, 10 µM and 20 µM. Oxytetracycline at 5 µM and 10 µM was used as a positive control, and water was used as a blank. MICs were expressed in µM as an [a]–[b] concentration interval where [a] was the last concentration with bacterial growth and [b] was the first concentration with 100% bacterial growth inhibition. MBCs (minimal bactericidal concentrations) were expressed in µM as an [a]–[b] concentration interval where [a] was the last concentration with bacterial growth and [b] was the first concentration that killed 100% of the bacteria."}, "[2]": {"system": "Halomonas aquamarina (CIP 105454T)", "experiment": "Liquid growth inhibition assay (MIC/MBC)", "assay_type": "cell-based", "settings": "Vreelandella aquamarina; HMB, starting OD600 0.001, 16 h, triplicate; interval [a]-[b]; '-' = not active", "experimental": "as §1"}, "[3]": {"system": "Lactococcus garvieae (CIP 104369)", "experiment": "Liquid growth inhibition assay (MIC/MBC)", "assay_type": "cell-based", "settings": "CIP104369, BHI, triplicate, interval [a]-[b], '-' = not active", "experimental": "as §1"}, "[4]": {"system": "Enteroccocus faecalis (CIP 76.117)", "experiment": "Liquid growth inhibition assay (MIC/MBC)", "assay_type": "cell-based", "settings": "Enterococcus faecalis, CIP76, poor broth, triplicate, interval [a]-[b], '-' = not active", "experimental": "as §1"}, "[5]": {"system": "Aeromonas salmonicida (CIP 103209T)", "experiment": "Liquid growth inhibition assay (MIC/MBC)", "assay_type": "cell-based", "settings": "TSB, triplicate, interval [a]-[b], '-' = not active", "experimental": "as §1"}, "[6]": {"system": "Escherichia coli (CIP 54.8T)", "experiment": "microbe, parasite or virus in culture", "assay_type": "cell-based", "experimental": "as §1"}, "[7]": {"system": "Vibrio alginolyticus (CIP 109819)", "experiment": "microbe, parasite or virus in culture", "assay_type": "cell-based", "experimental": "as §1"}, "[8]": {"system": "V. parahaemolyticus (CIP 73.30)", "experiment": "microbe, parasite or virus in culture", "assay_type": "cell-based, Vibrio parahaemolyticus", "settings": "for MIC: read-out: MIC Vibrio parahaemo-lyticus", "experimental": "as §1"}, "[9]": {"system": "V. aestuerianus (CIP 102971)", "experiment": "microbe, parasite or virus in culture", "assay_type": "cell-based, Vibrio aestueranius", "settings": "for MBC: read-out: MBC Vibrio aestueranius", "experimental": "as §1"}, "[10]": {"system": "V. anguillarum (CIP 64.14)", "experiment": "microbe, parasite or virus in culture", "assay_type": "cell-based, Vibrio anguillarum", "experimental": "as §1"}, "[11]": {"system": "human red blood cells", "assay_type": "cell-based", "experimental": "The haemolytic activity of the synthetic peptides was determined in triplicate on human red blood cells (RBCs) as described by Duval and collaborators. Briefly, RBCs were pelleted and washed three times in phosphate-buffered saline (PBS). Then, they were resuspended in PBS to obtain a 1% solution of RBC. Ten microliters of peptide solution were incubated with 90 µL of the RBC 1% solution for 1 h at 37 °C. The peptides were diluted in PBS and tested at different concentrations: 5 µM, 20 µM, 50 µM and 100 µM. Haemolytic activity was determined by measuring the OD at 415 nm. Zero haemolysis and total (100%) haemolysis were determined with PBS and 1% Triton X-100 solutions, respectively."}}, "note": "Where two headings read alike, the source gives them in different places. No end group written: not given here."}
{"molecule": "CN(C)[C@@H]1C(O)=C(C(N)=O)C(=O)[C@@]2(O)C(O)=C3C(=O)c4c(O)cccc4[C@@](C)(O)[C@H]3[C@H](O)[C@@H]12", "note": "[Ox, Oxytetracycline]", "values": [{"measurement": "MIC", "setting": "[1]; Vibrio splendidus, CIP107715, saline poor broth, starting OD600 0.001, 16 h, triplicate, interval [a]-[b], '-' = not active", "value": "≤ 5", "unit": "µM"}, {"measurement": "MBC", "setting": "[1]; Vibrio splendidus, CIP107715, saline poor broth, triplicate, interval [a]-[b], '-' = not active", "value": "≤ 5", "unit": "µM"}, {"measurement": "MIC", "setting": "[1]; saline poor broth, starting OD600 0.001, 16 h, triplicate, interval [a]-[b], '-' = not active, read-out: MIC Vibrio splendidus", "value": "≤5", "unit": "µM"}, {"measurement": "MIC", "setting": "[2]", "value": "> 10", "unit": "µM"}, {"measurement": "MIC", "setting": "[3]; starting OD600 0.001, 16 h", "value": "≤ 5", "unit": "µM"}, {"measurement": "MBC", "setting": "[3]", "value": "> 10", "unit": "µM"}, {"measurement": "MIC", "setting": "[4]; starting OD600 0.001, 16 h", "value": "≤ 5", "unit": "µM"}, {"measurement": "MBC", "setting": "[4]", "value": "5 to 10", "unit": "µM"}, {"measurement": "MIC", "setting": "[5]; starting OD600 0.001, 16 h", "value": "≤ 5", "unit": "µM"}, {"measurement": "MBC", "setting": "[5]", "value": "≤ 5", "unit": "µM"}, {"measurement": "MIC", "setting": "[6]; Escherichia coli, CIP54, poor broth, starting OD600 0.001, 16 h, triplicate, interval [a]-[b], '-' = not active", "value": "≤ 5", "unit": "µM"}, {"measurement": "MBC", "setting": "[6]; Escherichia coli, CIP54, poor broth, triplicate, interval [a]-[b], '-' = not active", "value": "≤ 5", "unit": "µM"}, {"measurement": "MIC", "setting": "[7]; Vibrio alginolyticus, CIP109819, saline poor broth, starting OD600 0.001, growth monitored 16 h, triplicate, interval [a]-[b], b = first concentration with 100% growth inhibition, peptides 5-50 µM, pairs 5-20 µM, oxytetracycline 5 and 10 µM, '-' = not active", "value": "≤ 5", "unit": "µM"}, {"measurement": "MBC", "setting": "[7]; Vibrio alginolyticus, CIP109819, saline poor broth, triplicate, interval [a]-[b], b = first concentration that killed 100% of the bacteria, '-' = not active", "value": "≤ 5", "unit": "µM"}, {"measurement": "MIC", "setting": "[7]; saline poor broth, starting OD600 0.001, growth monitored 16 h, triplicate, interval [a]-[b], b = first concentration with 100% growth inhibition, peptides 5-50 µM, pairs 5-20 µM, oxytetracycline 5 and 10 µM, '-' = not active", "value": "≤5", "unit": "µM"}, {"measurement": "MIC", "setting": "[8]; Vibrio parahaemolyticus, CIP73, saline poor broth, starting OD600 0.001, 16 h, triplicate, interval [a]-[b], '-' = not active", "value": "≤ 5", "unit": "µM"}, {"measurement": "MBC", "setting": "[8]; Vibrio parahaemolyticus, CIP73, saline poor broth, triplicate, interval [a]-[b], '-' = not active, read-out: MBC Vibrio parahaemo-lyticus", "value": "≤ 5", "unit": "µM"}, {"measurement": "MIC", "setting": "[8]; saline poor broth, starting OD600 0.001, 16 h, triplicate, interval [a]-[b], '-' = not active", "value": "≤5", "unit": "µM"}, {"measurement": "MIC", "setting": "[9]; Vibrio, CIP102971, saline poor broth, starting OD600 0.001, 16 h, triplicate, interval [a]-[b], '-' = not active, read-out: MIC Vibrio aestueranius", "value": "≤ 5", "unit": "µM"}, {"measurement": "MBC", "setting": "[9]; Vibrio, CIP102971, saline poor broth, triplicate, interval [a]-[b], '-' = not active", "value": "≤ 5", "unit": "µM"}, {"measurement": "MIC", "setting": "[10]; Vibrio anguillarum, CIP64, saline poor broth, starting OD600 0.001, 16 h, triplicate, interval [a]-[b], '-' = not active", "value": "≤ 5", "unit": "µM"}, {"measurement": "MBC", "setting": "[10]; Vibrio anguillarum, CIP64, saline poor broth, triplicate, interval [a]-[b], '-' = not active", "value": "≤ 5", "unit": "µM"}]}
{"molecule": "ASSFLTPRLSSLGKRSWAV [AV19]", "values": [{"measurement": "MBC Vibrio splendidus", "setting": "[1]; CIP 107715, 16 h", "value": "10 to 20", "unit": "µM"}, {"measurement": "MIC Vibrio splendidus", "setting": "[1]; CIP 107715, 16 h", "value": "10 to 20", "unit": "µM"}, {"measurement": "concentrations at which haemolytic", "setting": "[11]", "value": "50 to 100", "unit": "µM"}, {"measurement": "MBC Vibrio parahaemo-lyticus", "setting": "[8]; CIP 73, 16 h", "value": "20 to 50", "unit": "µM"}, {"measurement": "MIC Vibrio parahaemo-lyticus", "setting": "[8]; CIP 73, 16 h", "value": "10 to 20", "unit": "µM"}]}
{"molecule": "GFCNFMHLKPISRELRRELYGRTRRRRK [GK28]", "values": [{"measurement": "MBC", "setting": "[1]; CIP 107715, 16 h, read-out: MBC Vibrio splendidus", "value": "≤5", "unit": "µM"}, {"measurement": "MIC", "setting": "[1]; CIP 107715, 16 h, read-out: MIC Vibrio splendidus", "value": "≤5", "unit": "µM"}, {"measurement": "MBC Escherichia coli", "setting": "[6]; CIP 54, 16 h", "value": "20 to 50", "unit": "µM"}, {"measurement": "MIC", "setting": "[6]; CIP 54, 16 h", "value": "≤5", "unit": "µM"}, {"measurement": "MIC", "setting": "[7]; CIP 109819, 16 h", "value": "≤5", "unit": "µM"}, {"measurement": "MBC Vibrio alginolyticus", "setting": "[7]; saline poor broth, triplicate, interval [a]-[b], b = first concentration that killed 100% of the bacteria, '-' = not active", "value": "20 to 50", "unit": "µM"}, {"measurement": "MBC Vibrio parahaemo-lyticus", "setting": "[8]; CIP 73, 16 h", "value": "10 to 20", "unit": "µM"}, {"measurement": "MIC", "setting": "[8]; CIP 73, 16 h", "value": "≤5", "unit": "µM"}, {"measurement": "MIC Vibrio aestueranius", "setting": "[9]; CIP 102971, 16 h", "value": "10 to 20", "unit": "µM"}, {"measurement": "MBC", "setting": "[9]; CIP 102971, 16 h", "value": ">50", "unit": "µM"}, {"measurement": "MBC Vibrio anguillarum", "setting": "[10]; CIP 64, 16 h", "value": "20 to 50", "unit": "µM"}, {"measurement": "MIC Vibrio anguillarum", "setting": "[10]; CIP 64, 16 h", "value": "10 to 20", "unit": "µM"}]}
{"molecule": "NYWLLVLRRLLITKKVMWF [NF19]", "values": [{"measurement": "MBC Vibrio splendidus", "setting": "[1]; CIP 107715, 16 h", "value": "10 to 20", "unit": "µM"}, {"measurement": "MIC Vibrio splendidus", "setting": "[1]; CIP 107715, 16 h", "value": "5 to 10", "unit": "µM"}, {"measurement": "concentrations at which haemolytic", "setting": "[11]", "value": "50 to 100", "unit": "µM"}]}
